Test results as given in patent US20170027897A1, “mTORC1 MODULATION BY AMINO ACIDS AND USES THEREOF” (WHITEHEAD INSTITUTE FOR BIOMEDICAL RESEARCH, priority 2013, published 2017).

Experiments:
mTORC1 [1] = experiment: Amino acid starvation and re-stimulation of HEK-293T cells, phospho-S6K western blot; assay type: cell-based, human; settings: whole-cell assays of mTORC1 activity; partly called preliminary evidence
Excerpt: The work described herein determined which amino acids are most critical for signaling to the mTORC1 pathway in HEK-293T cells, the workhorse cell culture system to which we owe much of our understanding about amino acid sensing. The basic experimental paradigm consists of a 50-minute total amino acid starvation followed by a 10-minute stimulation with a customizable set of amino acids. […] The work described herein determined that that there may be one or more missing amino acids that, when added alongside Leu and Arg, could fully activate mTORC1.
To determine the identities of these missing amino acids, the inventors first stimulated cells with the set of essential or the set of nonessential amino acids. […] The inventors then tested triplet amino acid combinations comprised of Leu, Arg, and one additional essential amino acid. […] Cocktails of EAAs that omitted one amino acid at a time were prepared. […] Thus the necessity and sufficiency experiments yielded complementary results, converging on Leu, Arg, and Lys as key signals for mTORC1 activation in 293T cells.
The inventors have explored why this particular combination of amino acids has such synergistic effects on the mTORC1 pathway in 293T cells. Given that both Arg and Lys contain basic side chains, the inventors first wondered if this shared chemical property underlay their abilities to activate mTORC1.
Furthermore, the inventors continue to characterize structure-activity relationships using LRK derivatives with modifications on the carboxy terminus, the amino terminus, and/or the side chain in whole-cell and in vitro lysosomal assays of mTORC1 activity. The inventors first tested amino acid carboxyesters, whose enhanced ability to permeate membranes render them good candidates for lysosomal loading. Once inside the lysosome, amino acid esters are thought to undergo hydrolysis to yield their native counterparts. […] Knowledge of the chemical space around LRK can be used to develop probes for interrogating the LRK/protein(s) interaction interface for isolating and/or enriching the amino acid sensor(s) feeding into mTORC1.

mTORC1 [2] = experiment: mTORC1 activity in MEFs (immunoblotting); assay type: cell-based, mouse; settings: AMPK activator treatment
Experimental: FIG. 16A is a bar graph illustrating the decrease in plasma amino acids in all 1 h fasted neonates. […] FIG. 16C is a western blot depicting the time course of mTORC1 and AMPK activity in AMPK-wt, AMPK-DKO, RagA^+/+ and RagA^GTP/GTP MEFs deprived of glucose for 0.5, 2 and 4 h. FIG. 16D is a western blot of whole cell lysates immunoblotted for the indicated proteins, showing control HEK-293T cells or those expressing RagB^GTP were deprived of growth factors, glucose, amino acids, or glucose and amino acids for 1 h and re-stimulated with glucose and/or amino acids for 10 min. FIG. 16E is a graph illustrating the quantification of the western blots on FIG. 12B and FIG. 16D. FIG. 16F is a western blot showing the effect of amino acid esters on mTORC1 activity in wt MEFs. FIG. 16G is a bar graph showing the quantification of amino acids in RagA^+/+ and RagA^GTP/GTP MEFs deprived of glucose (relative to un-starved controls). […]
Maintenance of mTORC1 activity requires the simultaneous presence of growth factors, amino acids, and glucose^1. […] In addition, AMPK activity, as monitored by acetyl-CoA carboxylase (ACC) phosphorylation, was induced to similar levels in glucose-deprived RagA^+/+ and RagA^GTP/GTP cells (FIG. 12B and FIG. 16C), but absent in AMPK-null cells (FIG. 12A).

RagA^GTP/GTP neonates = experiment: Survival, glucose homeostasis and autophagy of fasted RagA^GTP/GTP neonates; assay type: in vivo, mouse
Experimental: NS, not significant. […] FIG. 10G is a series of bar graphs illustrating the quantification of neonatal plasma amounts of branched-chain (BCAA) and essential amino acids at birth (left), after 10 h fasting (middle) and after 10 h fasting with rapamycin treatment (right) (n for +/+, G/+ and G/G, respectively: n=4, 5 and 4 for 0 h; n=4, 4 and 3 for 10 h; n=2, 5 and 3 for rapamycin; mean±s.d.). Values are expressed relative to RagA^+/+ amounts at each time point.

[3] = Free amino acid levels in gastrocnemius muscle by LC-MS in fasted mice; assay type: in vivo, mouse; settings: upon IP injection of citrulline containing formulations
mTORC1 [4] = experiment: Phosphorylated S6 in gastrocnemius muscle and liver of fasted rats after oral gavage or bolus IV injection; assay type: in vivo; settings: summary of the rat studies
Experimental: FIGS. 23A, 23B, 23C and 23D depict the effect of administering various combinations of amino acids on levels of phosphorylated ribosomal protein S6 (pS6) in gastrocnemius muscle and liver. FIGS. 23A and 23B are bar graphs showing the fold increase in pS6/actin protein ratios in fasted rat gastrocnemius muscle (FIG. 23A) or liver (FIG. 23B) 30 and 60 minutes after administering amino acids via oral gavage. FIGS. 23C and 23D are bar graphs showing the fold increase in pS6/actin protein ratios in fasted rat gastrocnemius muscle (FIG. 23C) or liver (FIG. 23D) 30 and 60 minutes after administering amino acids via intravenous bolus injection.
Rats (n=3), fasted for 24 hours, were administered LRK or LCK via oral gavage or bolus IV injection and gastrocnemius muscle and liver was isolated 30 and 60 minutes later. Gastrocnemius muscle and liver was analyzed by SDS-PAGE followed by western blotting for levels of phosphorylated S6—a marker of mTORC1 activity.

[5] = cited from earlier work
[6] = test system: mice, hindlimb immobilization model of muscle atrophy; experiment: Hindlimb immobilization/recovery model of muscle atrophy, gastrocnemius mass; assay type: in vivo, mouse; settings: left hindlimb immobilized 5 days, 5 days recovery; IP twice daily; rapamycin daily where indicated
Experimental: Mice were subjected to immobilization of the left hind limb for 5 days followed by a 5-day recovery period. Each mouse was injected intraperitoneally twice daily at 9 am and 6 pm during the whole immobilization/recovery periods with the indicated amino acid esters or vehicle control. Rapamycin or vehicle control was injected daily where indicated. Following completion of the study both the right and left gastrocnemius were removed and mass of each muscle was recorded. Percent recovery was calculated by comparing the mass of the left immobilized gastrocnemius to that of the contralateral control leg. Standard error is shown, n=5-6 per treatment.
The protocol of hindlimb immobilization involves casting of the rear left leg, resulting in atrophy of the gastrocnemius and soleus muscles. The rear right leg remains free, and serves as an internal control for gastrocnemius and soleus muscle mass.
The inventors performed an experiment where left hindlimbs were immobilized for 5 days, casts were removed, and a recovery period of 5 days continued until the study endpoint. Animals were injected with PBS as control, L ethyl ester, or LR ethyl esters twice daily. As in the previous experiment, the 1× doses of amino acids and their esters were calculated as 20% of the amount that an adult mouse eats in a 24 h period under ad libitum conditions. […]

muscle protein synthesis = experiment: Muscle protein synthetic rate in starved rats (flooding dose of radiolabeled phenylalanine); assay type: in vivo, rat; settings: oral, 25% dose, 45 minutes, versus fasted vehicle control
Experimental: FIGS. 24A and 24B depict the effect of various amino acid combinations or a Leu-Arg-Lys tripeptide on phosphorylation of an mTORC1 substrate and the rate of muscle protein synthesis in starved rats.
To address this question, starved rats (n=8) were given oral doses of leucine, LR, LR(k), LC(k) and the LRK peptide and muscle protein synthetic rates were measured by administering a flooding dose of radiolabeled phenylalanine 10 minutes before sacrifice and quantifying uptake of radiolabeled phenylalanine.
Starved rats were dosed with amino acids benchmarked to either 5% of 25% of their daily intake of leucine. Rats were sacrificed 45 minutes after oral gavage and tissues and plasma was collected for mTORC1 signaling assessment, quantification of plasma leucine levels and measurement of protein synthetic rates.

mTORC1 [7] = experiment: Muscle mTORC1 activation in immobilized and fasted mice after IP injection (phosphorylated S6, 4EBP1); assay type: in vivo, mouse; settings: 18-hour fast, 30 minutes
Experimental: Mice were subjected to a model of hindlimb immobilization for 5 days in which the left hindlimb was casted as described in Example 2 in order to induce atrophy. Food and water were provided ad libitum. The night before day 6, food was withdrawn and the mice were subjected to an 18-hour overnight fast. […] Right (R; control) and left (L*; immobilized) gastrocnemius muscles were collected 30 minutes after treatment, snap frozen in liquid nitrogen, and processed for western blotting analysis with appropriate antibodies as previously described.

mTORC1 [8] = experiment: Assaying L, R, K analogs for mTORC1 modulation in whole cells (pS6K); assay type: cell-based, human
Experimental: Generally, to test analogs of L, R, and K, whole cells (e.g., HEK293) can be starved of all amino acids (using RPMI—aa) for a period of time (e.g., about 50 min), and then stimulated with a combination of L, R, or K and/or an analog of L, R, or K, and mTORC1 activity can be measured by phosphorylation of an mTORC1 substrate (e.g., S6K).
Below are exemplary conditions which can be used to assay analogs of leucine (e.g., photoleucine (photoLeu)) for their ability to activate or suppress mTORC1 activity.
4) RK+0.1× photoLeu 5) RK+0.5× photoLeu 6) RK+1× photoLeu 7) RK+10× photoLeu
9) LRK+0.1× photoLeu 10) LRK+0.5× photoLeu 11) LRK+1× photoLeu 12) LRK+10× photoLeu
Conditions 3-7 above test whether or not a leucine analog (e.g., photoLeu) can substitute for native Leu. […] Those skilled in the art will appreciate that conditions 3-7 above can be modified to assay other analogs, for example, by replacing RK with LK to assay R analogs or by replacing RK with LR to assay K analogs.
Conditions 8-12 above test whether or not a leucine analog (e.g., photoLeu) can compete against native Leu.
The concentration range of analogs used in the protocol set forth above was from about 0.1× to 10× (relative to RPMI), however, other concentrations may be used, as will be appreciated by the skilled artisan.

CC(C)C[C@H](NC(=O)OCc1ccccc1)C(=O)O
mTORC1 stimulatory activity of derivative compared with the corresponding native amino acid (mTORC1 [1]): retains the ability to signal to mTORC1, albeit with lower potency than native Leu

NC(=O)c1ncn([C@@H]2O[C@H](CO)[C@@H](O)[C@H]2O)c1N [AICAR, aminoimidazole carboxamide ribonucleotide]
mTORC1 activity in RagA^+/+ and RagA^GTP/GTP MEFs (mTORC1 [2]): inhibited mTORC1 in cells of all genotypes

C[C@H](N)C(=O)O [alanine]
glycaemia of fasted neonates after injection (RagA^GTP/GTP neonates; all neonates regardless of genotype): provoked a significant increase in glycaemia

NC(=O)NCCC[C@H](N)C(=O)O [citrulline, L-Citrulline]
conversion of citrulline to arginine [3]: little to no conversion of citrulline to arginine
mTORC1 activation at the level of muscle, as substitute for arginine (mTORC1 [4]): adequate substitute for arginine for mTORC1 activation at the level of muscle
mTORC1 activation in liver, as substitute for arginine (mTORC1 [4]): less potent at activating mTORC1 in liver
circulating citrulline converted to arginine by the kidneys ([5]; Bahri S. et al. 2013): over 80%

CCOC(=O)[C@@H](N)CC(C)C [leucine ethyl ester, L-leucine ethyl ester]
relative gastrocnemius muscle mass compared to control (PBS injected mice) [6]: the only treatment that led to a significant increase in gastrocnemius muscle mass was LR ethyl ester treatment
mTORC1 stimulatory activity of derivative compared with the corresponding native amino acid (mTORC1 [1]): modestly more stimulatory than the corresponding native amino acid

COC(=O)[C@@H](N)CC(C)C [leucine methyl ester]
mTORC1 stimulatory activity of derivative compared with the corresponding native amino acid (mTORC1 [1]): modestly more stimulatory than the corresponding native amino acid

CC(C)C[C@H](N)C(=O)O [leucine, L-leucine]
muscle protein synthesis (MPS) rate in gastrocnemius (muscle protein synthesis): little difference between fasted rats and rats given leucine alone
mTORC1 activity (phosphorylated S6 and 4EBP1) in non-immobilized (R) gastrocnemius (mTORC1 [7]): stimulated mTORC1 in the non-immobilized muscle in all mice
mTORC1 activity (phosphorylated S6 and 4EBP1) in immobilized (L*) gastrocnemius compared to fasted controls (mTORC1 [7]; 5 days immobilization, LRK = 1× (L-Leucine, L-Arginine) plus 0.1× L-Lysine): unable to increase mTORC1 activity in the immobilized (L*) gastrocnemius muscle in four of the 5 mice

CCOC(=O)[C@@H](N)CCCCN [lysine ethyl ester]
mTORC1 stimulatory activity of derivative compared with the corresponding native amino acid (mTORC1 [1]): modestly more stimulatory than the corresponding native amino acid

COC(=O)[C@@H](N)CCCCN [lysine methyl ester]
mTORC1 stimulatory activity of derivative compared with the corresponding native amino acid (mTORC1 [1]): modestly more stimulatory than the corresponding native amino acid

NCCCC[C@H](N)C(=O)O [lysine, L-lysine]
bioavailability of orally ingested amino acid ([5]; Fry C S et al. 2011): superior to leucine and arginine

CC1(C[C@H](N)C(=O)O)N=N1 [photoLeu]
suppression of pS6K signal caused by baseline LRK (antagonist test) (mTORC1 [8]; LRK + 0.1× to 10× analog (relative to RPMI)): not an antagonist or mTORC1-inactivating competitor against native Leu
pS6K signal when analog substitutes for native Leu (agonist test) (mTORC1 [8]; RK + 0.1× to 10× analog (relative to RPMI)): pS6K signal increases
mTORC1 stimulatory activity of derivative compared with the corresponding native amino acid (mTORC1 [1]): retains some mTORC1 stimulatory activity

CO[C@H]1C[C@@H]2CC[C@@H](C)[C@@](O)(O2)C(=O)C(=O)N2CCCC[C@H]2C(=O)O[C@H]([C@H](C)C[C@@H]2CC[C@@H](O)[C@H](OC)C2)CC(=O)[C@H](C)/C=C(\C)[C@@H](O)[C@@H](OC)C(=O)[C@H](C)C[C@H](C)/C=C/C=C/C=C/1C [rapamycin]
time to death of fasted RagA^GTP/GTP neonates (RagA^GTP/GTP neonates; treated at birth, untreated ˜14 h, p<0.01): ~21 h
